Assay results: US20080267948A1, “Croos-B Structure Binding Compounds” (priority 2005, published 2008)
Entries after “also recorded” stand apart in the source; their conditions may differ.

Tests used:
[1] = tested on: human blood platelets; test: Platelet aggregation (aggregometric assay with washed platelets); format: cell-based; details: for platelet aggregation by compound alone: 25 or 50 μg/ml ellagic acid, hydrate
Procedure: The influence of amyloid-β(1-40) E22Q Dutch type (Aβ) peptide aggregates with cross-β structure conformation on blood platelet aggregation was tested with washed platelets in an aggregometric assay. Freshly drawn human aspirin free blood was mixed gently with citrate buffer to avoid coagulation. Blood was spinned for 15′ at 150*g at 20° C. and supernatant was collected; platelet rich plasma (PRP). […] After spinning down the platelets upon centrifugation for 15′ at 330*g at 20° C., the pellet was resuspended in HEPES-Tyrode buffer pH 6.5. Prostacyclin was added to a final concentration of 10 ng/ml, and the solution was centrifuged for 15′ at 330*g at 20° C., with a soft brake. The pellet was resuspended in HEPES-Tyrode buffer pH 7.2 in a way that the final platelet number was adjusted to 200,000/μl. Platelets were kept at 37° C. for at least 30′, before use in the assays, to ensure that they were in the resting state.
Aggregation of platelets was monitored in an aggregometer (Chrono-Log Corporation, Havertown, Pa., USA) for 15 minutes at 37° C. with a magnet stirring speed of 900 rpm. First, 270 μl of platelet solution was pipetted in the cuvettes and after 1 minute of stirring, 30 μl of preincubated (5 minutes, RT) Aβ and Hematein solution or control was added. The hematein stock was 10 mg/ml in HEPES-Tyrode buffer. The Aβ stock was 1 mg/ml. For blank readings unstirred HEPES Tyrode buffer was used. The aggregation is expressed as the percentage of the light transmission (0-100%). As a positive control, synthetic thrombin receptor activating peptide (TRAP) induced platelet aggregation was used. A control experiment was performed to study the influence of the red colour of hematein on the light transmission. For this, 4 μM TRAP was added at time 1 minute to the platelets, then hematein was added after 6 minutes of aggregation. The platelets were used for not more than 4 hours after isolation to reduce variations in sensitivity amongst subsequent measurements.
Ellagic acid was first dissolved to 100 mg/ml in DMSO, and then further diluted to 1 mg/ml in HBS buffer. Final concentrations of Aβ and ellagic acid in the aggregation assay were 50 μg/ml and 25/50 μg/ml, respectively. In addition, the influence of ellagic acid alone on platelet aggregation was tested. As a control, the influence of 0.08% DMSO on 50 μg/ml Aβ-induced platelet aggregation was analyzed. The 100% DMSO of the ellagic acid stock was diluted 2000 and 4000×, resulting in […] final DMSO concentrations in the aggregation assay.

[2] = target: T1, tPA/plasminogen (Homo sapiens, UniProt P00750); test: tPA/plasminogen activation by pre-formed misfolded OVA in the presence of compounds; format: biochemical; details: 80-fold or 160-fold diluted compound and misfolded OVA stocks of 1 mg/ml
T1 construct: purchased Boehringer Ingelheim Actilyse
T1 sequence (P00750 36-562): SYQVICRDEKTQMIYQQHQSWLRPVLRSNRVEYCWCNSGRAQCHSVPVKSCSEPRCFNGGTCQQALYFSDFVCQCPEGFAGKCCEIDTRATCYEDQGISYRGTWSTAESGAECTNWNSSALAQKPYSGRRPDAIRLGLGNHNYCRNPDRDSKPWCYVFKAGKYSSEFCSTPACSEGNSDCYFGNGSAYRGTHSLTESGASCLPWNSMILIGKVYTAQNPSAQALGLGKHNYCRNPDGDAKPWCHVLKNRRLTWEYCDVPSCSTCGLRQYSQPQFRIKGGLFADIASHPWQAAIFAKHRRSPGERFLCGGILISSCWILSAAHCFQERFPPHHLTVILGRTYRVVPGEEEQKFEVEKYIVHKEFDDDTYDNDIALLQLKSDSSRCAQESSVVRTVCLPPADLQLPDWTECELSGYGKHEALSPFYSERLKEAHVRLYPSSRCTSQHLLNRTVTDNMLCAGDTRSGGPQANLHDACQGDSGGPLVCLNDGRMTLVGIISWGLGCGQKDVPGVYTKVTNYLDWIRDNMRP
Procedure: […] Negative control was buffer without OVA. […] In addition, it was assessed whether the compounds interfere with absorbance readings at 405 nm, with converted chromogenic substrate. […] The yellow solution is divided over wells of an ELISA plate. […] Signals are compared and related to the control.

[3] = target: T1, tPA/plasminogen; test: tPA/plasminogen activation by OVA heated in the presence of compounds (substrate PNAPEP1751); format: biochemical; details: 25 μg/ml OVA, 25 μg/ml compound, […] DMSO
In short: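 Ovalbumin heated alone in PBS/1% DMSO (positive control) or with compounds at 1 mg/ml, then used 40-fold diluted in a tPA/plasminogen activation assay; buffer without OVA as negative control. Chromogenic substrate conversion read at 405 nm, with compound interference at 405 nm checked; signals related to control.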

O=c1oc2c(O)c(O)cc3c(=O)oc4c(O)c(O)cc1c4c23 [compound 117, Ellagic acid hydrate]
influence on Aβ induced platelet aggregation ([1]; 25 and 50 μg/ml ellagic acid hydrate, 100 μg/ml Aβ): further enhances amyloid-β triggered aggregation | platelet aggregation by compound alone ([1]; listed as ellagic acid hydrate): potent activator of platelets resulting in their aggregation; also recorded: Stimulation of platelet aggregation | platelet aggregation by compound alone ([1]; listed as ellagic acid): strong inducer of aggregation | influence on tPA/plasminogen activation by pre-formed misfolded OVA [2]: Full block of tPA/plasminogen activation by misfolded OVA | influence on tPA/plasminogen activation by OVA pre-heated in the presence of compound [3]: Inhibition of tPA/plasminogen activation by OVA pre-heated
